Measurements published in ChEMBL document CHEMBL5321293, “Discovery of ERD-3111 as a Potent and Orally Efficacious Estrogen Receptor PROTAC Degrader with Strong Antitumor Activity” (J Med Chem, 2023).
The source made the active and inactive calls. The rule behind the calls is not given here.

Key:
[1] = Metabolic stability in rat liver microsomes assessed as half life at 1 uM and measured upto 60 mins in presence of NADPH by LC-MS/MS analysis; format: ADME, Microsome
[2] = Drug concentration in tumor of CB17 SCID mouse xenografted with human MCF7 cells harboring wild type ESR1 at 10 mg/kg, po qd for 3 days and measured after 24 hrs last dose by LC-MS/MS analysis; format: ADME, organism-based, Neoplasm; settings: time 3 day, read-out: Ct
[3] = Toxicity in CB17 SCID mouse xenografted with human MCF7 cells harboring wild type ESR1 assessed as body weight change at 30 mg/kg,po qd for 5 weeks; format: organism-based; settings: in vivo, 840 h
[4] = Drug concentration in tumor of CB17 SCID mouse xenografted with human MCF7 cells harboring ESR1 Y537S mutant at 10 mg/kg, po qd for 3 days and measured after 6 hrs last dose by LC-MS/MS analysis; format: ADME, organism-based, Neoplasm; settings: time 3 day, read-out: Ct
[5] = Oral bioavailability in ICR mouse at 3 mg/kg and measured upto 24 hrs by LC-MS/MS analysis; format: ADME, organism-based; settings: in vivo
MCF7 [6] = assay: Antitumor activity against human MCF7 cells harboring wild type ESR1 xenografted in CB17 SCID mouse assessed as tumor growth inhibition at 30 mg/kg, po qd for 5 weeks; format: functional; settings: MCF7, 840 h, read-out: TGI
[7] = Metabolic stability in human liver microsomes assessed as half life at 1 uM and measured upto 60 mins in presence of NADPH by LC-MS/MS analysis; format: ADME, Microsome
[8] = Downregulation of ERalpha protein expression in tumor of CB17 SCID mouse xenografted with human MCF7 cells harboring ESR1 Y537S mutant at 10 mg/kg, po qd for 3 days and measured after 6 hrs last dose by Western blot analysis relative to control; format: functional; settings: time 3 day
[9] = Downregulation of ERalpha protein expression in tumor of CB17 SCID mouse xenografted with human MCF7 cells harboring ESR1 D538G mutant at 10 mg/kg, po qd for 3 days and measured after 6 hrs last dose by Western blot analysis relative to control; format: functional; settings: time 3 day
[10] = Half life in ICR mouse at 3 mg/kg, po and measured upto 24 hrs by LC-MS/MS analysis; format: ADME, organism-based; settings: in vivo
Cytochrome P450 2C8 = biological target: T1, Cytochrome P450 2C8 (Homo sapiens, UniProt P10632); assay: Inhibition of CYP2C8 in human liver microsomes preincubated for 5 mins in presence substrate followed by NADPH addition and measured after 10 mins by LC-MS/MS analysis; format: ADME, Microsome
T1 sequence (P10632 whole entry): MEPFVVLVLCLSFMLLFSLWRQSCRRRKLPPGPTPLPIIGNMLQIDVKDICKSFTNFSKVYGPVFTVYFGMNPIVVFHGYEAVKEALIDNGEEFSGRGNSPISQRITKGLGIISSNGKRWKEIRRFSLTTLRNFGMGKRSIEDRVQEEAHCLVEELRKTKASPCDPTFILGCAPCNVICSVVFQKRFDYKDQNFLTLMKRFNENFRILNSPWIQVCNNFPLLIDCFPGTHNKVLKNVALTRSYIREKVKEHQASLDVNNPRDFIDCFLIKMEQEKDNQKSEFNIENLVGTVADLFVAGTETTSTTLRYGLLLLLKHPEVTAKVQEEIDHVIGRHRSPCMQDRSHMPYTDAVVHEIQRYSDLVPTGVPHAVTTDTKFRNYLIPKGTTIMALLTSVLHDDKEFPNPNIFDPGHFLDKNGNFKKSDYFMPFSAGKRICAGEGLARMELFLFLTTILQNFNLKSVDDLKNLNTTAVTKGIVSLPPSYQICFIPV

[11] = AUC in Sprague-Dawley rat at 3 mg/kg, po and measured upto 24 hrs by LC-MS/MS analysis; format: ADME, organism-based; design: dose 3 mg/kg, time < 24 hrs, route po; settings: Sprague-Dawley, in vivo
[12] = biological target: T2, Protein cereblon/Estrogen receptor (Homo sapiens, UniProt P03372+Q96SW2); assay: Protac activity at human ERalpha in human MCF7 cells assessed as induction of ERalpha degradation by measuring maximum efficacy at 1 uM incubated for 12 hrs by ICW blot assay relative to control; format: cell-based
T2 sequence (P03372 whole entry, looked up): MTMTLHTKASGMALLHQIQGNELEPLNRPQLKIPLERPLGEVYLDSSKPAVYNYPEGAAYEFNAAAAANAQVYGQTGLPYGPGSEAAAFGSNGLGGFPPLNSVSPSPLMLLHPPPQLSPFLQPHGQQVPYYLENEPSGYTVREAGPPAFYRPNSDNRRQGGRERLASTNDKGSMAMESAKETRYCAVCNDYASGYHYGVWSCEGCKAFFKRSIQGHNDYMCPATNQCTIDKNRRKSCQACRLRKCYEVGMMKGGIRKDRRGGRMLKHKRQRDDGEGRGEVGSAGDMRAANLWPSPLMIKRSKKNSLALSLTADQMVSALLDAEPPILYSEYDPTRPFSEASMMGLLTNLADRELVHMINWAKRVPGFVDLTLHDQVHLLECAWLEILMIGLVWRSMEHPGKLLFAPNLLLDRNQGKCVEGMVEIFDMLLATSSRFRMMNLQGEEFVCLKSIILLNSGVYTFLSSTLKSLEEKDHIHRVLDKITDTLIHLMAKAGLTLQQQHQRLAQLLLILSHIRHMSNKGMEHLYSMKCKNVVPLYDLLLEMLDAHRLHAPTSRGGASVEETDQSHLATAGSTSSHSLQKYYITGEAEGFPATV
T2 sequence (Q96SW2 whole entry, looked up): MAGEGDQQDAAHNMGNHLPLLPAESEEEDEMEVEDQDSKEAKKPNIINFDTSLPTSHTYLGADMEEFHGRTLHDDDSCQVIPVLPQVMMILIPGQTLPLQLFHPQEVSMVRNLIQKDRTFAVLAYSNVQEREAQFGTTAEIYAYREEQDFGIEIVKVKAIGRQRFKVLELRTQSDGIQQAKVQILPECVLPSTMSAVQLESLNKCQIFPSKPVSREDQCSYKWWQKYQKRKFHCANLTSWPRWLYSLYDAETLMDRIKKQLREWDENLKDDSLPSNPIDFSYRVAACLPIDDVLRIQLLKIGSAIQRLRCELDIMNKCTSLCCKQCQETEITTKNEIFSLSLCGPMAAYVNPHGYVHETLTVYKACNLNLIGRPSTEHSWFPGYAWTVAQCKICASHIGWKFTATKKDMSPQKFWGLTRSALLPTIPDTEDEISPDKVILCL

[13] = Downregulation of ERalpha protein expression in tumor of CB17 SCID mouse xenografted with human MCF7 cells harboring wild type ESR1 at 30 mg/kg, po qd for 3 days and measured after 3 hrs last dose by Western blot analysis relative to control; format: functional; settings: time 3 day
[14] = Clearance in ICR mouse at 1 mg/kg, iv and measured upto 24 hrs by LC-MS/MS analysis; format: ADME, organism-based; settings: in vivo
[15] = Drug concentration in tumor of CB17 SCID mouse xenografted with human MCF7 cells harboring ESR1 Y537S mutant at 30 mg/kg, po qd for 3 days and measured after 6 hrs last dose by LC-MS/MS analysis; format: ADME, organism-based, Neoplasm; settings: time 3 day, read-out: Ct
[16] = Drug concentration in plasma of CB17 SCID mouse xenografted with human MCF7 cells harboring ESR1 D538G mutant at 10 mg/kg, po qd for 3 days and measured after 6 hrs last dose by LC-MS/MS analysis; format: ADME, organism-based; settings: time 3 day
MCF7 [17] = assay: Antitumor activity against human MCF7 cells harboring wild type ESR1 xenografted in CB17 SCID mouse assessed as tumor growth inhibition at 10 mg/kg, po qd for 5 weeks; format: functional; settings: MCF7, 840 h, read-out: TGI
[18] = Volume of distribution at steady state in Beagle dog at 0.5 mg/kg, iv and measured upto 24 hrs by LC-MS/MS analysis; format: ADME, organism-based, Canis lupus familiaris; settings: in vivo, read-out: Vdss
[19] = Downregulation of ERalpha protein expression in tumor of CB17 SCID mouse xenografted with human MCF7 cells harboring wild type ESR1 at 30 mg/kg, po qd for 3 days and measured after 24 hrs last dose by Western blot analysis relative to control; format: functional; settings: time 3 day
[20] = biological target: T2, Protein cereblon/Estrogen receptor; assay: Protac activity at human ERalpha in human T47D cells assessed as reduction in ERalpha protein level at 0.1 to 100 nM by Western blot analysis; format: cell-based; settings: dose 0.1-100 nM
MCF7 [21] = assay: Antitumor activity against human MCF7 cells harboring ESR1 D538G mutant xenografted in CB17 SCID mouse assessed as tumor growth inhibition at 30 mg/kg, po qd for 4 weeks; format: functional; settings: MCF7, 672 h, read-out: TGI
MCF7 [22] = assay: Antitumor activity against human MCF7 cells harboring ESR1 D538G mutant xenografted in CB17 SCID mouse assessed as tumor growth inhibition at 10 mg/kg, po qd for 4 weeks and measured 1 week post last dose; format: functional, organism-based
[23] = Toxicity in CB17 SCID mouse xenografted with human MCF7 cells harboring ESR1 D538G mutant assessed as body weight change at 10 mg/kg,po qd for 4 weeks; format: organism-based; settings: in vivo, 672 h
[24] = AUC in ICR mouse at 3 mg/kg, po and measured upto 24 hrs by LC-MS/MS analysis; format: ADME, organism-based; design: dose 3 mg/kg, time < 24 hrs, route po; settings: in vivo
[25] = Toxicity in CB17 SCID mouse xenografted with human MCF7 cells harboring ESR1 D538G mutant assessed as body weight change at 30 mg/kg,po qd for 4 weeks; format: organism-based; settings: in vivo, 672 h
[26] = Drug concentration in plasma of CB17 SCID mouse xenografted with human MCF7 cells harboring wild type ESR1 at 30 mg/kg, po qd for 3 days and measured after 24 hrs last dose by LC-MS/MS analysis; format: ADME, organism-based; settings: time 3 day
[27] = Oral bioavailability in Beagle dog at 1 mg/kg and measured upto 24 hrs by LC-MS/MS analysis; format: ADME, organism-based, Canis lupus familiaris; settings: in vivo

C[C@@H]1Cc2c(ccc3[nH]ncc23)[C@@H](c2c(F)cc(N3CCC4(CCN(C(=O)CN5Cc6cc7c(cc6C5)C(=O)N(C5CCC(=O)NC5=O)C7=O)CC4)CC3)cc2F)N1CC(F)F (stereo partly drawn)
half-life at 1 µM [1]: > 1 h | concentration at 72 h [2]: 162 ng/mL | Activity [3]: Non-Toxic | concentration at 72 h [4]: 692 ng/mL | bioavailability [5]: 42% | inhibition in vivo at 30 mg/kg (MCF7 [6]): 42% | half-life at 1 µM [7]: > 1 h | Activity [8]: 70% | Activity [9]: 68% | half-life [10]: 6.4 h | IC50 (Cytochrome P450 2C8): > 10 µM | AUC at 24 h [11]: 1320 ng·h/mL | Emax [12]: 91% | Activity [13]: 82% | clearance [14]: 5.7 mL/min/kg | concentration at 72 h [15]: 3740 ng/mL | concentration at 72 h [16]: 609 ng/mL | inhibition in vivo at 10 mg/kg (MCF7 [17]): 24% | Vd [18]: 5.2 L/kg | Activity [19]: 73% | Activity [20]: Dose-Dependent Effect | inhibition in vivo at 30 mg/kg (MCF7 [21]): 51% | Activity (MCF7 [22]): Active | Activity [23]: Non-Toxic | AUC at 24 h [24]: 3370 ng·h/mL | Activity [25]: Non-Toxic | concentration at 72 h [26]: 80 ng/mL | bioavailability [27]: 66%
